Source: patent publication US11147272B2, “Pyridone compounds and agricultural and horticultural fungicides comprising the same as active ingredients” (MITSUI CHEMICALS AGRO, INC., priority 2017, dated 2021)

Legend:
[1] = system: Blumeria graminis f. sp. hordei; test: Test Example D: Powdery mildew on barley; conditions: for Test D control value class: class of control value
[2] = system: Colletotrichum orbiculare; test: Test Example H: Anthracnose on cucumber; conditions: for Test H control value: 6 to 10 days after inoculation; for Test H control value class: Anthracnose on cucumber (Sagami Hanjiro), 2.5 ml/pot, assessed 6 to 10 days after inoculation
[3] = system: Alternaia brassicicola; test: Test Example C: Alternaria sooty spot on cabbage; format: in vivo
Text: Seeds of a test plant (cabbage variety: Shikidori) were planted and cultivated until the cotyledons extended.
<Control Value> Control value=100{1−(n/3)}

[4] = system: Plasmopara viticola; test: Test Example G: Downy mildew on vine; conditions: for Test G control value: 7 to 10 days after inoculation; for Test G control value class: Downy mildew on vine (Neomuscat), 2.5 ml/pot, assessed 7 to 10 days after inoculation
[5] = system: Botrytis cinerea; test: Test Example B: Gray mold on tomato; conditions: for Test B control value class: class of control value
[6] = system: Puccinia recondita; test: Test Example E: Brown rust on wheat; format: in vivo
[7] = system: Phytophthora infestans; test: whole plant or invertebrate; format: in vivo; conditions: for Test F control value class: class of control value
[8] = system: Magnaporthe grisea; test: whole plant or invertebrate; format: in vivo; conditions: for Test A control value class: class of control value
[9] = Powdery mildew on barley, control value class
[10] = Anthracnose on cucumber, 250 ppm spray
[11] = Alternaria sooty spot on cabbage, control value class
[12] = Downy mildew on vine, 250 ppm spray
[13] = Gray mold on tomato, control value class
[14] = Brown rust on wheat, control value class
[15] = Late blight on tomato, control value class
[16] = Blast on rice, control value class
[17] = Alternaria sooty spot on cabbage, class of control value
[18] = Brown rust on wheat, class of control value
[19] = 250 ppm drug solution sprayed on test plant
[20] = 250 ppm drug solution sprayed (2.5 ml/pot), cucumber Sagami Hanjiro
[21] = 250 ppm drug solution sprayed (2.5 ml/pot), grape Neomuscat

Compound | Test D control value [1, 9] | Test H control value [2, 10] | Test C control value [3, 11] | Test G control value [4, 12] | Test B control value [5, 13] | Test E control value [6, 14] | Test F control value [7, 15] | Test A control value [8, 16] | Test D control value class ([1]; Powdery mildew on barley) | Test H control value class ([2]; 250 ppm spray) | Test C control value class [3, 17] | Test G control value class ([4]; 250 ppm spray) | Test B control value class ([5]; Gray mold on tomato) | Test E control value class [6, 18] | Test F control value class ([7]; Late blight on tomato) | Test A control value class ([8]; Blast on rice) | further results
C=C(c1cc(Cl)c(=O)n(CC)c1-c1c(F)cc(F)cc1F)C(C)C [compound 243] | H (more than 50% control value) | H (more than 50% control value) | H (more than 50% control value) | L (50% or less control value) | H (more than 50% control value) | H (more than 50% control value) | L (50% or less control value) | H (more than 50% control value) | – | – | – | – | – | – | – | – | –
CCn1c(-c2ccc(OC)cc2)c(C(C)(F)C(C)C)cc(Cl)c1=O (stereo not drawn) [compound 249] | L (50% or less control value) | H (more than 50% control value) | H (more than 50% control value) | L (50% or less control value) | H (more than 50% control value) | H (more than 50% control value) | L (50% or less control value) | L (50% or less control value) | – | – | – | – | – | – | – | – | –
CCn1c(-c2c(F)cc(F)cc2F)c(C(C)(C)C)cc(Br)c1=O [compound 70] | – | – | – | – | – | – | – | – | H (more than 50% control value) | H (more than 50% control value) | H (more than 50% control value) | L (50% or less control value) | H (more than 50% control value) | H (more than 50% control value) | L (50% or less control value) | H (more than 50% control value) | –
CCn1c(-c2c(F)cc(F)cc2F)c(C(C)C)cc(Br)c1=O [compound 9] | – | – | – | – | – | – | – | – | H (more than 50% control value) | H (more than 50% control value) | H (more than 50% control value) | H (more than 50% control value) | H (more than 50% control value) | H (more than 50% control value) | L (50% or less control value) | H (more than 50% control value) | –
CCn1c(-c2c(F)cccc2F)c(C(C)(F)C(C)C)cc(Cl)c1=O (racemic) [compound 184] | – | – | – | – | – | – | – | – | H (more than 50% control value) | H (more than 50% control value) | H (more than 50% control value) | H (more than 50% control value) | H (more than 50% control value) | H (more than 50% control value) | L (50% or less control value) | H (more than 50% control value) | –
CCOC(c1cc(Cl)c(=O)n(C)c1-c1c(F)cc(F)cc1F)C(C)C (stereo not drawn) [compound 497] | – | – | – | – | – | – | – | – | – | – | – | – | – | – | – | – | Test D control value [1, 19]: H (more than 50% control value); Test H control value [2, 20]: H (more than 50% control value); Test C control value [3, 19]: H (more than 50% control value); Test G control value [4, 21]: H (more than 50% control value); Test B control value [5, 19]: H (more than 50% control value); Test E control value [6, 19]: H (more than 50% control value); Test F control value [7, 19]: L (50% or less control value); Test A control value [8, 19]: H (more than 50% control value)
CCn1c(-c2ccc(F)cc2Cl)c(C2CCCCC2)ccc1=O [compound 176] | – | – | – | – | – | – | – | – | H (more than 50% control value) | L (50% or less control value) | H (more than 50% control value) | L (50% or less control value) | H (more than 50% control value) | H (more than 50% control value) | H (more than 50% control value) | H (more than 50% control value) | –
CCn1c(-c2ccc(OC)cc2Cl)c(CC(C)C)cc(Br)c1=O [compound 240] | H (more than 50% control value) | H (more than 50% control value) | H (more than 50% control value) | H (more than 50% control value) | H (more than 50% control value) | H (more than 50% control value) | L (50% or less control value) | H (more than 50% control value) | – | – | – | – | – | – | – | – | –
CCn1c(-c2c(F)cc(F)cc2F)c(C(C)C)cc(Cl)c1=O [Compound No. 8, 3-chloro-1-ethyl-5-isopropyl-6-(2,4,6-trifluorophenyl)pyridin-2(1H)-one] | – | – | – | – | – | – | – | – | – | – | – | – | – | – | – | – | pest or weed control at 250 µg/mL ([1]; Blumeria graminis, in Hordeum vulgare, topical, read-out: Test D control value class): > 50%; pest or weed control at 250 ppm ([2]; Colletotrichum orbiculare, in Cucumis sativus, topical, read-out: Test H control value class): > 50%; pest or weed control at 250 µg/mL ([3]; Brassica oleracea, topical, Alternaria sooty spot on cabbage, class of control value, read-out: Test C control value class): > 50%; pest or weed control at 250 ppm ([4]; Plasmopara viticola, topical, read-out: Test G control value class): < 50%; pest or weed control at 250 µg/mL ([5]; Botrytis cinerea, in Solanum lycopersicum, topical, read-out: Test B control value class): > 50%; pest or weed control at 250 µg/mL ([6]; Puccinia recondita, topical, Brown rust on wheat, class of control value, read-out: Test E control value class): > 50%; pest or weed control at 250 µg/mL ([7]; Phytophthora infestans, in Solanum lycopersicum, topical, read-out: Test F control value class): < 50%; pest or weed control at 250 µg/mL ([8]; Pyricularia oryzae, in Oryza sativa, read-out: Test A control value class): > 50%
CCCc1cc(Cl)c(=O)n(C)c1-c1ccc(F)cc1Cl [compound 332] | H (more than 50% control value) | H (more than 50% control value) | H (more than 50% control value) | L (50% or less control value) | H (more than 50% control value) | H (more than 50% control value) | L (50% or less control value) | H (more than 50% control value) | – | – | – | – | – | – | – | – | –
CCn1c(-c2c(F)cc(OC)cc2F)c(C(C)(CC)OC)cc(Br)c1=O (stereo not drawn) [compound 486] | – | – | – | – | – | – | – | – | – | – | – | – | – | – | – | – | Test D control value [1, 19]: H (more than 50% control value); Test H control value [2, 20]: H (more than 50% control value); Test C control value [3, 19]: H (more than 50% control value); Test G control value [4, 21]: L (50% or less control value); Test B control value [5, 19]: H (more than 50% control value); Test E control value [6, 19]: H (more than 50% control value); Test F control value [7, 19]: L (50% or less control value); Test A control value [8, 19]: H (more than 50% control value)
CCn1c(-c2c(F)cc(F)cc2F)c(C(C)(CC(C)C)OC)cc(Cl)c1=O (racemic) [compound 164] | – | – | – | – | – | – | – | – | H (more than 50% control value) | L (50% or less control value) | H (more than 50% control value) | H (more than 50% control value) | H (more than 50% control value) | H (more than 50% control value) | L (50% or less control value) | H (more than 50% control value) | –
CCn1c(-c2c(F)cc(F)cc2F)c(C(C)(O)C2CCCC2)cc(Cl)c1=O (stereo not drawn) [compound 244] | H (more than 50% control value) | H (more than 50% control value) | H (more than 50% control value) | L (50% or less control value) | H (more than 50% control value) | H (more than 50% control value) | L (50% or less control value) | H (more than 50% control value) | – | – | – | – | – | – | – | – | –
CCn1c(-c2c(F)cccc2OC)c(CC(C)C)cc(Cl)c1=O [compound 97] | – | – | – | – | – | – | – | – | H (more than 50% control value) | H (more than 50% control value) | H (more than 50% control value) | L (50% or less control value) | H (more than 50% control value) | H (more than 50% control value) | L (50% or less control value) | H (more than 50% control value) | –
CCn1c(-c2c(F)cccc2OCSC)c(CC(C)C)cc(Cl)c1=O [compound 105] | – | – | – | – | – | – | – | – | L (50% or less control value) | H (more than 50% control value) | H (more than 50% control value) | H (more than 50% control value) | H (more than 50% control value) | L (50% or less control value) | L (50% or less control value) | H (more than 50% control value) | –
